The values below come from the METLIN SMRT retention time set (Domingo-Almenara et al. 2019).

A short description of this series: gradient 5% acetonitrile 3 min, to 50% in 2 min, to 85% in 15 min, held 3 min, 100 µL/min. The settings on record: column: Zorbax Extend-C18 2.1 x 50 mm; eluents: water / acetonitrile, 0.1% formic acid. The procedure, abridged: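 Retention times come from adduct peaks that were picked computationally and then checked by hand. The standards, pure and pooled in mixtures of ~100 molecules, were run on a Zorbax Extend-C18 column (2.1 × 50 mm, 1.8 μm) at 100 μL/min with water and acetonitrile, each with 0.1% formic acid. Detection was by quadrupole time-of-flight mass spectrometry in positive and negative ionization mode, with a dead volume of 40 μL and a dwell volume of 900 μL.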
With `Cc1ccc2ncn(C3CCN(S(=O)(=O)c4ccc(Cl)cc4)CC3)c(=O)c2c1`, the RP-LC retention time is 970 s.
Under `O=C(Nc1cccn2nc(C3CCC3)nc12)C1CCCO1` (stereo not drawn) stands 774 s; under `CCc1sc(NC(=O)Cc2ccc(C)cc2)nc1-c1ccccc1`, 1150 s.
As to `O=C(NC1CCN(c2ccc(=O)[nH]n2)C1)c1ccc(F)c(Cl)c1` (stereo not drawn), the RP-LC retention time came out at 648 s.
Under `Cc1cc([N+](=O)[O-])ccc1NS(=O)(=O)c1cc(Cl)ccc1Cl` stands 1020 s.
On to `Cc1cc(C)n(-c2ccnc(N3CCC(C(=O)NCc4ccc(F)cc4)CC3)n2)n1`, for which the RP-LC retention time turned out to be 833 s.
With `CCCN(C)CC1(O)CCC2(CCN(C(=O)c3ccsc3)CC2)CC1`, the RP-LC retention time came out at 590 s.
Then `Cc1nc(-c2cnccn2)n(CC(=O)Nc2cccc(Cl)c2)c(=O)c1C`, with 792 s.
Then `COc1ccc(CN2CCc3nc(N4CCN(c5ccccn5)CC4)ncc3C2)c(OC)c1OC`, with 555 s; and `CC(C)S(=O)(=O)N1CCC(CCOc2ccccc2)C1` (stereo not drawn), with 980 s.
`COc1ccc(S(=O)(=O)N2CC3CN(C(=O)c4cc(C)oc4C)CC(C2)O3)cc1`: the RP-LC retention time is 785 s.
Then `CC(=O)c1ccc(NC(=O)Cn2cccc2-c2nc(-c3ccc4c(c3)OCO4)no2)cc1`, with 923 s; and `COc1ccccc1NC(=O)N1C[C@@H]2CN(S(=O)(=O)c3ccc(C)cc3)C[C@H](C1)O2`, with 836 s; and `CCNc1cc(N2CCCC(CCC(=O)NCCOC)C2)ncn1` (stereo not drawn), with 580 s.
For the compound `Cc1ccc(C)c(NC(=O)C2CCCN(c3nc4c(s3)c(C)nn4-c3ccccc3)C2)c1` (stereo not drawn), the RP-LC retention time worked out at 1220 s.
Under `CCCNC(=O)C1CCN(c2nc3ccc(-c4ccccc4)nc3s2)CC1` stands 906 s; under `Cc1nn(CC(=O)N2CCN(c3ccccn3)CC2)c(=O)c2cccn12`, 568 s.
Under `FC(F)(F)c1nc(N2CCN(C(c3ccccc3)c3ccccc3)CC2)nc2c1CCCCC2` stands 559 s.
With `Cc1ccc(C)c(NC(=O)C2CCCN2S(=O)(=O)c2cc3c(cc2C)NC(=O)C(C)O3)c1` (stereo not drawn), the RP-LC retention time is 845 s.
Then `CSc1cccc(NC(=O)CN2C(=O)C3CCCCN3c3ccc(C(=O)N4CCCC4)cc32)c1` (stereo not drawn), with 869 s; and `CCN(CC)CCNC(=O)C(C)n1c2ccccc2c2cnn(C)c(=O)c21` (stereo not drawn), with 609 s.
As for `COC(=O)c1cn(NC(=O)c2cc(-c3ccco3)nc3ccccc23)c(=O)c2ccccc12`, the RP-LC retention time is 858 s.
Then `Cc1ccc(C(=O)N2CCN(c3nc(CN4CCOCC4)cs3)CC2)cc1F`, with 629 s; and `CCCNC(=O)c1c(C)sc2ccn(Cc3ccc(F)cc3)c(=O)c12`, with 863 s; and `CCC(=O)N1CCc2c(C(=O)NCCN3CCc4ccccc4C3)cccc21`, with 614 s.
Under `COC(=O)c1ccccc1Nc1c(-c2ccc(N3CCOCC3)cc2)nc2cnccn12` stands 874 s.
Compound `CCN(CC)C(=O)c1ccccc1NC(=O)c1ccc2c(c1)-c1ccccc1S(=O)(=O)N2CC` showed an RP-LC retention time of 992 s.
The compound `CCN1C(=O)c2cccnc2Sc2cc(NC(=O)c3ccccc3)ccc21` gave an RP-LC retention time of 812 s.
Then `CCCN(C(=O)Nc1ccc(CC)cc1)c1nc(-c2ccc(C3CCCCC3)cc2)cs1`, with 619 s; and `COc1ccc(OC)c(S(=O)(=O)N2CCCC(C(=O)N3CCOCC3)C2)c1` (stereo not drawn), with 664 s.
`Cc1cc(N2CCCC2)n2nc(CN3CCN(CC(C)C)CC3)nc2n1`: the RP-LC retention time came out at 549 s.
In turn, `O=C(Nc1ccc2nc3n(c(=O)c2c1)CCCC3)c1cc2ccccc2[nH]1` displayed an RP-LC retention time of 720 s.
Then `O=C(C1=C(O)C(=O)N(CCCn2ccnc2)C1c1ccc(F)cc1)c1cc2ccccc2o1` (stereo not drawn), with 622 s; and `O=C(CC1C(=O)NCCN1C(=O)CN1CCN(c2ccccn2)CC1)Nc1ccccc1` (stereo not drawn), with 565 s.
Consider `O=C(CC1CCN(C(=O)Nc2cccc(C(F)(F)F)c2)CC1)N1CCCCC1`, for which the RP-LC retention time was 878 s.
Then `COc1cccc(CNC(=O)C2CCCN(c3nnc4ccc(Cl)cn34)C2)c1OC` (stereo not drawn), with 754 s; and `Cc1ccc(-c2nnc(-c3nn(C)c4c3CN(S(=O)(=O)c3ccccc3Cl)CC4)o2)cc1`, with 1020 s.
As to `CCn1ncn2cc(S(=O)(=O)Nc3cccc(C)c3)cc2c1=O`, the RP-LC retention time was found to be 849 s.
Then `CCCn1cc(C(=O)Nc2ccc(OC)c(OC)c2)c(=O)c2ccc(C)nc21`, with 1020 s; and `CSc1cccc(NC(=O)N2CCN(c3cc(C)nc(N4CCOCC4)n3)CC2)c1`, with 650 s; and `COC(=O)c1ccc(NC(=O)NCc2noc3ccc(C)cc23)cc1`, with 868 s.
The compound `CCN(Cc1ccc(Cl)cc1)Cc1cc(=O)n2cc(C)ccc2n1` returned an RP-LC retention time of 583 s.
Under `CC(C)n1c(CCNC(=O)c2ccc(Cl)cc2)nc2cccnc21` stands 704 s; under `CC(C)NC(=O)CN1C(=O)COc2ccc(C(=O)NC3CCCC3)cc21`, 712 s.
Under `O=C(c1ccccc1F)N1N=C(c2cccs2)CC1c1ccc2nccnc2c1` (stereo not drawn) stands 791 s.
Under `O=C(Nc1ncc([N+](=O)[O-])s1)c1c2c(nn1C1CCS(=O)(=O)C1)CCC2` (stereo not drawn) stands 792 s; under `O=C(CCC1CCCN(c2cc(NC3CC3)ncn2)C1)NCc1cccnc1` (stereo not drawn), 560 s.
Compound `CCOc1cc(=O)n2c(c1C(=O)Nc1ccc(Cl)cc1C)CCCC2` registered an RP-LC retention time of 786 s.
As to `CCCc1noc(-c2ccc(-n3ncc(C(=O)NC4CC4)c3C)nc2)n1`, the RP-LC retention time was 865 s.
Compound `O=C(Nc1ccc(F)cc1Cl)c1c(O)c2cccnc2n(-c2cccc(F)c2)c1=O` gave an RP-LC retention time of 1300 s.
As for `COc1ccc(C)cc1NC(=O)N1CCC(c2nc(C(=O)N3CCCC3)c(C)o2)CC1`, the RP-LC retention time was 865 s.
Then `Cc1cc(C)cc(-n2ccnc(NC(=O)Nc3ccc(F)c(Cl)c3)c2=O)c1`, with 1150 s; and `CCn1cnc(S(=O)(=O)N2CCC(C(=O)Nc3cc(C)ccc3C)CC2)c1`, with 719 s; and `O=C(NCc1ccco1)C1CCN(c2nc3ccsc3c(=O)n2Cc2ccccc2)CC1`, with 829 s.
Then `COc1c(C(=O)NCc2ccccc2C)sc2cccc(F)c12`, with 1130 s; and `CCOc1ccccc1NC(=O)N1CCc2nc(-c3ccc(Cl)cc3)ncc2C1`, with 1170 s; and `COc1ccc(C(=O)Nc2nnc(SCc3nnc(-c4ccc5c(c4)OCO5)o3)s2)cc1OC`, with 834 s.
Compound `O=C(NCc1ccc(Br)cc1)C1CCCN(c2cnc3nccnc3c2)C1` (stereo not drawn) showed an RP-LC retention time of 755 s.
